Laboratory results: US20110070232A1, “Combination Therapy with an Antitumor Alkaloid” (Pharma Mar, S.A., priority 2008, published 2011)
Like-named read-outs stand apart in the source and are kept apart here.

How the values were obtained:
Type in all cases: in vivo, mice
MRI-H-254 tumors = system: MRI-H-254 tumors
Method: (§1) Female athymic nude mice (Harlan Sprague Dawley, Madison, Wis.) were utilized for all experiments. Animals were housed in ventilated rack caging with food and water ad libitum. The mice were acclimated for at least 5 days prior to tumor implantation with tumor fragments.
Treatments were initiated on DPI 20.
(§2) Tumor size measurements were recorded twice weekly from the treatment initiation until the termination of the study.
(§3) Mean, standard deviation and standard error of the mean were determined for tumor volume for all animal groups at all assessments. Student's t test was performed on tumor volumes at each measurement day, including at the end of the study, to determine whether there were any statistically significant differences between combination treatment groups and single monotherapy treatment groups.

SK-OV-3 tumors = settings: for % Inhibition: PM00104 0.9 mg/kg/day, single agents and combination, r5-r14 = day 14,17,21,24,29,32,36,43,50,57
Text: as §1
The tumor model used in these studies was SK-OV-3 cell line, which was obtained from the ATCC (Manassas, Va.).
SK-OV-3 fragments were removed from donor animals and tissue was debrided of membrane and any hemorrhagic and necrotic areas and 3-4 mm^3 fragments, from in vivo passage 2, were implanted SC on the right flank of each animal, using a 13G trochar. Bacterial culture was taken on cells used to implant the study.
Treatments were initiated on DPI 14.
as §2, §3

HepG2 tumors = system: HepG2 tumors
Method: Female athymic nude mice (Harlan Sprague Dawley, Madison, Wis.) were utilized for all experiments. Animals were housed in ventilated rack caging with food and water ad libitum. The mice were acclimated for at least 5 days prior to tumor implantation with a tumor cell suspension.
The tumor model used in these studies was HepG2 cell line, which was obtained from the ATCC (Manassas, Va.).
HepG2 cells were grown in MEM supplemented with 10% FBS, 1.5 g/L sodium bicarbonate, 0.1 mM non-essential amino acids, 1.0 mM sodium pyruvate, and 2 mM L-glutamine. Each animal was implanted SC on the right flank, using a 13G trochar, with 5×10^6 HepG2 cells in a 0.2 mL suspension of 50% Matrigel and 50% serum free medium, without antibiotics. Bacterial cultures were performed on aliquots of the cells prepared for implantation.
Treatments were initiated on DPI 19.
as §2, §3

[1] = PM00104 0.90 IV, docetaxel 16 IP, oxaliplatin 8 IP mg/kg/day (G2, G3, G5, G7, G9), DPI 20, 27, 34
[2] = PM00104 0.90 mg/kg/day IV and/or Bevacizumab 5 mg/kg/day IP
[3] = day 19, PM00104 0.60, sorafenib 60 mg/kg/day
[4] = day 19, PM00104 0.90, sorafenib 60 mg/kg/day
[5] = day 22, PM00104 0.60, sorafenib 60 mg/kg/day
[6] = day 22, PM00104 0.90, sorafenib 60 mg/kg/day
[7] = day 26, PM00104 0.60, sorafenib 60 mg/kg/day
[8] = day 26, PM00104 0.90, sorafenib 60 mg/kg/day
[9] = day 30, PM00104 0.60, sorafenib 60 mg/kg/day
[10] = day 30, PM00104 0.90, sorafenib 60 mg/kg/day
[11] = day 33, PM00104 0.60, sorafenib 60 mg/kg/day
[12] = day 33, PM00104 0.90, sorafenib 60 mg/kg/day

## COc1c(C)cc2c(c1O)[C@@H]1[C@@H]3Cc4c(OC(C)=O)c(C)c5c(c4[C@H](CNC(=O)/C=C/c4cccc(C(F)(F)F)c4)N3[C@@H](O)[C@H](C2)N1C)OCO5 [PM00104]
MRI-H-254 tumors; [1]
  % T/C on day 20: 100.2%
  % T/C on day 23: 109.3%
  % T/C on day 27: 71.6%
  % T/C on day 30: 65.4%
  % T/C on day 33: 54.2%
  % T/C on day 36: 50.0%
  % T/C on day 40: 36.1%
  % T/C on day 48: 26.9%
MRI-H-254 tumors; day 20, PM00104 0.9 and docetaxel 8 mg/kg/day
  % Inhibition: −0.2%
MRI-H-254 tumors; day 20, PM00104 0.9 and docetaxel 16 mg/kg/day
  % Inhibition: −0.2%
MRI-H-254 tumors; day 20, PM00104 0.9 and oxaliplatin 4 mg/kg/day
  % Inhibition: −0.2%
MRI-H-254 tumors; day 20, PM00104 0.9 and oxaliplatin 8 mg/kg/day
  % Inhibition: −0.2%
MRI-H-254 tumors; day 23, PM00104 0.9 and docetaxel 8 mg/kg/day
  % Inhibition: −9.3%
MRI-H-254 tumors; day 23, PM00104 0.9 and docetaxel 16 mg/kg/day
  % Inhibition: −9.3%
MRI-H-254 tumors; day 23, PM00104 0.9 and oxaliplatin 4 mg/kg/day
  % Inhibition: −9.3%
MRI-H-254 tumors; day 23, PM00104 0.9 and oxaliplatin 8 mg/kg/day
  % Inhibition: −9.3%
MRI-H-254 tumors; day 27, PM00104 0.9 and docetaxel 8 mg/kg/day
  % Inhibition: 28.4%
MRI-H-254 tumors; day 27, PM00104 0.9 and docetaxel 16 mg/kg/day
  % Inhibition: 28.4%
MRI-H-254 tumors; day 27, PM00104 0.9 and oxaliplatin 4 mg/kg/day
  % Inhibition: 28.4%
MRI-H-254 tumors; day 27, PM00104 0.9 and oxaliplatin 8 mg/kg/day
  % Inhibition: 28.4%
MRI-H-254 tumors; day 30, PM00104 0.9 and docetaxel 8 mg/kg/day
  % Inhibition: 34.6%
MRI-H-254 tumors; day 30, PM00104 0.9 and docetaxel 16 mg/kg/day
  % Inhibition: 34.6%
MRI-H-254 tumors; day 30, PM00104 0.9 and oxaliplatin 4 mg/kg/day
  % Inhibition: 34.6%
MRI-H-254 tumors; day 30, PM00104 0.9 and oxaliplatin 8 mg/kg/day
  % Inhibition: 34.6%
MRI-H-254 tumors; day 33, PM00104 0.9 and docetaxel 8 mg/kg/day
  % Inhibition: 45.8%
MRI-H-254 tumors; day 33, PM00104 0.9 and docetaxel 16 mg/kg/day
  % Inhibition: 45.8%
MRI-H-254 tumors; day 33, PM00104 0.9 and oxaliplatin 4 mg/kg/day
  % Inhibition: 45.8%
MRI-H-254 tumors; day 33, PM00104 0.9 and oxaliplatin 8 mg/kg/day
  % Inhibition: 45.8%
MRI-H-254 tumors; day 36, PM00104 0.9 and docetaxel 8 mg/kg/day
  % Inhibition: 50.0%
MRI-H-254 tumors; day 36, PM00104 0.9 and docetaxel 16 mg/kg/day
  % Inhibition: 50.0%
MRI-H-254 tumors; day 36, PM00104 0.9 and oxaliplatin 4 mg/kg/day
  % Inhibition: 50.0%
MRI-H-254 tumors; day 36, PM00104 0.9 and oxaliplatin 8 mg/kg/day
  % Inhibition: 50.0%
MRI-H-254 tumors; day 40, PM00104 0.9 and docetaxel 8 mg/kg/day
  % Inhibition: 63.9%
MRI-H-254 tumors; day 40, PM00104 0.9 and docetaxel 16 mg/kg/day
  % Inhibition: 63.9%
MRI-H-254 tumors; day 40, PM00104 0.9 and oxaliplatin 4 mg/kg/day
  % Inhibition: 63.9%
MRI-H-254 tumors; day 40, PM00104 0.9 and oxaliplatin 8 mg/kg/day
  % Inhibition: 63.9%
MRI-H-254 tumors; day 48, PM00104 0.9 and docetaxel 8 mg/kg/day
  % Inhibition: 73.1%
MRI-H-254 tumors; day 48, PM00104 0.9 and docetaxel 16 mg/kg/day
  % Inhibition: 73.1%
MRI-H-254 tumors; day 48, PM00104 0.9 and oxaliplatin 4 mg/kg/day
  % Inhibition: 73.1%
MRI-H-254 tumors; day 48, PM00104 0.9 and oxaliplatin 8 mg/kg/day
  % Inhibition: 73.1%
SK-OV-3 tumors; [2]
  % T/C on day 14: 100.9%
  % T/C on day 17: 87.6%
  % T/C on day 21: 79.4%
  % T/C on day 24: 78.8%
  % T/C on day 29: 73.5%
  % T/C on day 32: 73.1%
  % T/C on day 36: 72.7%
  % T/C on day 43: 81.5%
  % T/C on day 50: 93.8%
  % T/C on day 57: 100.4%
SK-OV-3 tumors; bevacizumab 5 mg/kg/day
  % Inhibition: 27.3%
SK-OV-3 tumors; bevacizumab […]
  % Inhibition: 27.3%
HepG2 tumors; day 19, PM00104 0.60, sorafenib 30 mg/kg/day
  % Inhibition: 8.4%
HepG2 tumors; [3]
  % Inhibition: 8.4%
  % T/C: 91.6%
HepG2 tumors; day 19, PM00104 0.90, sorafenib 30 mg/kg/day
  % Inhibition: 8.5%
HepG2 tumors; [4]
  % Inhibition: 8.5%
  % T/C: 91.5%
HepG2 tumors; day 22, PM00104 0.60, sorafenib 30 mg/kg/day
  % Inhibition: 28.1%
HepG2 tumors; [5]
  % Inhibition: 28.1%
  % T/C: 71.9%
HepG2 tumors; day 22, PM00104 0.90, sorafenib 30 mg/kg/day
  % Inhibition: 40.3%
HepG2 tumors; [6]
  % Inhibition: 40.3%
  % T/C: 59.7%
HepG2 tumors; day 26, PM00104 0.60, sorafenib 30 mg/kg/day
  % Inhibition: 48.3%
HepG2 tumors; [7]
  % Inhibition: 48.3%
  % T/C: 51.7%
HepG2 tumors; day 26, PM00104 0.90, sorafenib 30 mg/kg/day
  % Inhibition: 59.5%
HepG2 tumors; [8]
  % Inhibition: 59.5%
  % T/C: 40.5%
HepG2 tumors; day 30, PM00104 0.60, sorafenib 30 mg/kg/day
  % Inhibition: 59.2%
HepG2 tumors; [9]
  % Inhibition: 59.2%
  % T/C: 40.8%
HepG2 tumors; day 30, PM00104 0.90, sorafenib 30 mg/kg/day
  % Inhibition: 76.1%
HepG2 tumors; [10]
  % Inhibition: 76.1%
  % T/C: 23.9%
HepG2 tumors; day 33, PM00104 0.60, sorafenib 30 mg/kg/day
  % Inhibition: 62.4%
HepG2 tumors; [11]
  % Inhibition: 62.4%
  % T/C: 37.6%
HepG2 tumors; day 33, PM00104 0.90, sorafenib 30 mg/kg/day
  % Inhibition: 73.0%
HepG2 tumors; [12]
  % Inhibition: 73.0%
  % T/C: 27.0%
